Test system: intracerebral 9L gliomas
Assay: In vivo therapy of glioma using Photofrin-containing nanoparticles with laser (diffusion MRI, Kaplan-Meier survival)
Design: species or system rat
Conditions: 9L tumor rats, tail vein administration, FIG. 17
Source text: Rats harboring intracerebral 9L gliomas, were allowed to grow to approximately 50 microliters in size, as quantitated using multi-slice T2-weighted MRI. Rats were divided into the following groups: sham (untreated); laser exposure only; intravenous administered photofrin (no nanoparticles); photofrin-encapsulated nanoparticles; and photofrin-encapsulated nanoparticles with F3 targeting (n=5/group). Diffusion MRI scans were obtained prior to treatment and every 2-3 days following treatment. Treatment with laser administration consisted of 750 mW of laser light administered at 630 nm for 7.5 minutes of total exposure time. This was accomplished through the same 1 mm diameter burr hole which was initially made to inject the 9L tumor cells to initiate tumor growth. The depth of the cylindrical laser tip was adjusted, based upon the MRI scan data, to be at the base of the tumor mass in order to optimize light delivery to the overall tumor mass. Diffusion MRI scans were acquired in order to assess in real time, the effectiveness of treatment. Increased diffusion values within the tumor mass reflect areas of cell kill (necrosis) and the magnitude of the increase is proportional to the level of cell killing. As shown in the MRI scans in FIG. 15, control diffusion tumor values are on average at approximately 100 apparent diffusion coefficient units (ADC).

Substance: Photofrin
- survival times (Kaplan-Meier): no significant differences in survival times

Source: patent publication US20050196343A1, “Degradable nanoparticles” (Molecular Therapeutics, Inc., priority 2004, published 2005)
